Measurements from article PMC10350919 (Journal of Medicinal Chemistry, 2023).

Columns and labels:
[1] = system: M. bovis BCG Pasteur ATCC 35734; assay type: cell-based
M. tuberculosis H37Ra = assay type: cell-based, Mycobacterium tuberculosis
E. faecium ATCC 700221 = experiment: Neutropenic thigh infection mouse model with VanA E. faecium; assay type: in vivo; settings: compound 17 4 doses at 100 mg/kg i.p., linezolid 4 doses at 50 mg/kg i.p.

Compound	MIC, M. bovis BCG Pasteur ATCC 35734 [1] [µg/mL]	MIC, M. tuberculosis H37Ra (M. tuberculosis H37Ra) [µg/mL]	weight loss compared to untreated control mice (E. faecium ATCC 700221)	survival (endpoint: 15% of starting weight lost) (E. faecium ATCC 700221; neutropenic mice, Kaplan–Meier, *P < 0.05 Gehan–Breslow–Wilcoxon test)
complestatin	64	>64	–	–
CC(=O)NC[C@H]1CN(c2ccc(N3CCOCC3)c(F)c2)C(=O)O1 [linezolid]	–	–	reduced weight loss	significant survival benefit
